Reference: article PMC4862498, “PI4 Kinase Is a Prophylactic but Not Radical Curative Target in Plasmodium vivax-Type Malaria Parasites” (Antimicrobial Agents and Chemotherapy, 2016)

Columns and labels:
[1] = design: species or system rhesus macaques (Macaca mulatta); details: rhesus monkey, in vivo, po, 20 mg/kg
From the text: Blood samples were collected for clinical evaluation and pharmacokinetic (PK) analysis (see Table S2 in the supplemental material).
(§1) Details of in vivo PK studies of KDU691 and LMV599 in CD-1 mice and monkeys can be found in the supplemental material.
P. cynomolgi sporozoite production
A monkey was infected with […] P. cynomolgi M strain blood stage parasites, thawed from a first passage stock (i.e. blood stage parasites from a monkey infected with P. cynomolgi M strain sporozoites). For each batch of sporozoites needed, a single monkey was infected with P. cynomolgi blood stage parasites.
At day 11 and 12 post infection 9 mL infected blood was collected into a Lithium-heparinised tube. The blood was kept at 38°C and fed approximately 500 three to five days old female Anopheles stephensi mosquitoes Sind-Kasur strain Nijmegen (Nijmegen University Medical Centre St Radboud, Department of Medical Microbiology) using a glass feeder system as described by Ponnudurai et al.. After the second bleed, the monkey was cured by three daily intramuscular injections of 7.5 mg/kg chloroquine, monitored for parasite clearance 24 days after chloroquine treatment and returned to colony.
Mosquitoes were kept in climate chambers at 25 °C and 80% humidity and were fed 5% D -glucose on cotton pads daily. Seven days after feeding on the infected rhesus blood, oocyst numbers were determined in midguts of ten individuals, using 1% mercurochrome stain. Mosquitoes were given a second (uninfected) blood meal immediately afterwards to promote sporozoite maturation and invasion of the salivary glands. Sporozoites were isolated from the P. cynomolgi infected mosquitoes around day16 after the infected blood meal.
In vivo monkey infection and treatment procedures
Sporozoites were isolated from the P. cynomolgi infected mosquitoes around day16 after the infected blood meal. For this, mosquitoes were collected in a beaker and killed with 70% ethanol. After four washes in Leibovitz’ L15 medium containing 3% FCS and 2% pen/strep, salivary glands were dissected.
Salivary glands were kept on ice at all times, sporozoites were liberated by pottering. The sporozoites were washed with PBS, counted in a Burker-Turk chamber, and diluted to 100,000 spz/mL in PBS.
Aliquots of 1 mL were prepared and injected into monkeys via intravenous (i.v.) injection. […]
group (691-RC-high) and a control group (691-C)
KDU691 was formulated as a micro suspension in 0.5% Methylcellulose/0.5% Tween 80 in water, maximum one hour before dosing. The amount of KDU691 sufficient to treat all animals of one group was weighed, a microsuspension of 10 mg/mL in methylcellulose/tween was made and sonicated (Soniprep 150, Sanyo) with an amplitude of 12-15 µm for 15 min. The dose for each monkey was transferred to a 50 mL tube, which was vortexed extensively just before administration.
To collect samples for KDU691 PK analysis in monkeys, approximately 100 µL blood was taken from the calf vein for each time point and immediately spotted onto DBS filters (PKI Bioanalysis cards, Perkin Elmer). […]
The monkeys of the LMV599/PQ experiment were cured with a five day CQ treatment (7.5 mg/kg, i.m. administration) at the first relapse and were monitored until the second relapse after which they were cured with CQ (7.5 mg/kg, intramuscular (i.m.) for five days) plus PQ (1.8 mg/kg for 14 days). […]

[2] = design: species or system mice and monkeys; details: in vivo
Experimental: as §1
Pharmacokinetic analysis.
Mean values of compound concentrations in plasma and liver were obtained from three animals at each time point and plotted against time to generate concentration-time profiles. Pharmacokinetic parameters were determined using WinNonlin Professional, version 5.0.1 (Pharsight, California, USA), by non-compartmental modeling using software model 200 for oral dosing. The oral bioavailability (F) was calculated as the ratio between the area under the curve from 0 to infinity (AUCinf) following oral administration and the AUCinf following intravenous administration corrected for dose (F = AUCp.o. * dosei.v. / AUCi.v. * dosep.o.).
PK-PD relationship analysis.
The compound concentration that inhibited 50% of P. cynomolgi growth (IC50) was used to calculate the threshold (TRE = 3*IC50) and the PK-PD indices. The Cmax/TRE was defined as the ratio of peak plasma concentration (Cmax) to the threshold (3*IC50), the AUC0-24/TRE was defined as the ratio of area under the curve from 0 to 24 hours (AUC0-24) to the threshold, and the percent time over threshold (%T>TRE) was defined as the percentage of the 24 hour period during which the compound concentration exceeded the […]
Table S3: Monkey stratification for the in vivo testing of KDU691. […]

[3] = tested on: Plasmodium berghei luciferase sporozoites; design: method as in PMID 25147620; details: single dose of 7.5 mg/kg after sporozoite infection; cited from earlier work

CNC(=O)c1ccc(-c2cnc3cnc(C(=O)N(C)c4ccc(Cl)cc4)cn23)cc1 [KDU691]
% fT > TRE [1]: 16.7% | AUC [1]: 38.82 µM·h | Cmax [1]: 4.31 µM | fAUC/TRE [1]: 13.08 | fCmax/TRE [1]: 1.45 | oral bioavailability [2]: 52-66% | causal prophylactic protection in mice [3]: complete protection
